Source: PMC9733911 (2022)

Tested on: d(CTG)16 (DNA, repeat) GGGCTGCTGCTGCTGCTGCTGCTGCTGCTGCTGCTGCTGCTGCTGCTGCTGCCC
Test: ITC
Details: monomer alone

Row | Structure (SMILES) | Kd [µM]
1 | N=C(NCCCCNc1nc(N)nc(NCc2ccc(C=O)cc2)n1)c1ccc(C(=N)NCCCCNc2nc(N)nc(NCc3ccc(C=O)cc3)n2)cc1 | 81.6 ± 0.9
2 | N=C(NCCCCNc1nc(N)nc(NCc2ccc(N)cc2)n1)c1ccc(C(=N)NCCCCNc2nc(N)nc(NCc3ccc(N)cc3)n2)cc1 | > 100
